*1 amine or outer side, *2 acyl side, *3 side chain or, on linkers, in order; H or OH if unused. Where a SMILES comes first, the peptide text is derived from it. Side-chain parts run from the residue outwards. [ ]: non-standard residue; d: D form. The star is where a group is joined. Isobutyryl(2-(3-CN-5-F-Ph)) = CC(C)(C(=O)*)c1cc(F)cc(C#N)c1; C20 diacid = O=C(O)CCCCCCCCCCCCCCCCCCC(=O)*; γGlu = O=C(O)[C@H](CCC(=O)[*:2])N[*:1]; X35 = N#Cc1cc(F)cc(C2(C(=O)*)CCCC2)c1; X81 = CCC(CC)(C(=O)*)c1cc(F)cc(C#N)c1; X21 = O=C(C(CN[*:1])C(F)(F)F)[*:2]; X69 = CC(C)(C(=O)*)c1c(F)cccc1F; AEEA = NCCOCCOCC(=O)O; Aib = CC(C)(N)C(=O)O; βAla = NCCC(=O)O
Legend:
Assay type in all cases: cell-based
GLP-1 receptor [1] = biological target: T1, GLP-1 receptor (Homo sapiens, UniProt P43220); assay: HitHunter cAMP assay, GLP-1 receptor; details: for EC50: CHO cells stably expressing human GLP-1 receptor, cAMP accumulation, 30 min, read-out: EC50 GLP-1R; for Emax: CHO cells, cAMP, normalized to maximum signal from GLP-1 (high) and DMSO (low), read-out: Emax GLP-1R
GLP-1 receptor [2] = biological target: T1, GLP-1 receptor; assay: PathHunter β-arrestin assay, GLP-1 receptor; design: host or cells: PathHunter CHO-K1 GLP1R β-Arrestin Cell Line; details: β-arrestin-2 recruitment, PathHunter CHO-K1 GLP1R β-Arrestin Cell Line, 90 min at 37° C.; normalized to GLP-1; read-out: GLP-1R β Arrestin EC50
GIP receptor [3] = biological target: T2, GIP receptor (Homo sapiens, UniProt P48546); assay: HitHunter cAMP assay, GIP receptor; details: for EC50: CHO cells stably expressing GIP receptor, cAMP accumulation, 30 min, read-out: EC50 GIP-1R; for Emax: CHO cells, cAMP, normalized to maximum signal from GIP (high) and DMSO (low), read-out: Emax GIP-1R
T2 sequence (P48546 22-466): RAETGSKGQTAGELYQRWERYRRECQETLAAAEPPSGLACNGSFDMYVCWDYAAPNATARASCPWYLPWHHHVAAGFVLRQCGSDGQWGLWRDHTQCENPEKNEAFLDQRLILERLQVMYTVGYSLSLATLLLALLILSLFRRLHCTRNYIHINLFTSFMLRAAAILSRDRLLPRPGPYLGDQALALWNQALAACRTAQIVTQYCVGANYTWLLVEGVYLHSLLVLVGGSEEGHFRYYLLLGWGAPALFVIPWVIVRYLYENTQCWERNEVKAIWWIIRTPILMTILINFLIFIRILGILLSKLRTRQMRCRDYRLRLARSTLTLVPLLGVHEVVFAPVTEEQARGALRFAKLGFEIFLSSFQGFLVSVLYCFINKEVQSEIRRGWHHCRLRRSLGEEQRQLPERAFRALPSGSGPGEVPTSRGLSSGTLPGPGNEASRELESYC

GIP receptor [4] = biological target: T2, GIP receptor; assay: PathHunter β-arrestin assay, GIP receptor; design: host or cells: PathHunter CHO-K1 GIPR β-Arrestin Cell Line; details: β-arrestin-2 recruitment, PathHunter CHO-K1 GIPR β-Arrestin Cell Line, 90 min at 37° C.; normalized to GIP; read-out: GIPR β Arrestin EC50

T1 sequence (P43220 24-463): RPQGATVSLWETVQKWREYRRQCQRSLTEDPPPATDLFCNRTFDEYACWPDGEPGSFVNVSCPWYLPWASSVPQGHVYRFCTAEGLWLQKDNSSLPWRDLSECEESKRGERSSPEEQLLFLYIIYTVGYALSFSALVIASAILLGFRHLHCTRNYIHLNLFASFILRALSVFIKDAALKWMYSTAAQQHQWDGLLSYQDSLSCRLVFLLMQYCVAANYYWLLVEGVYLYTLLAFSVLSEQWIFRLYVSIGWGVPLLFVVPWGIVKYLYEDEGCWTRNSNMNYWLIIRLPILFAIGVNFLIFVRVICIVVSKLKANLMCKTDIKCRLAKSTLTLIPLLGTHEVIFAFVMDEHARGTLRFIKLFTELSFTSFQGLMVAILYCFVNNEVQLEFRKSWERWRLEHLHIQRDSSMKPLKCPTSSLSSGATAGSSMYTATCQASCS

Structure (SMILES)	EC50 (GLP-1 receptor [1])	Emax (GLP-1 receptor [1])	EC50 (GLP-1 receptor [2])	EC50 (GIP receptor [3])	Emax (GIP receptor [3])	EC50 (GIP receptor [4])
CC[C@H](C)[C@H](NC(=O)[C@H](CC(C)C)NC(=O)[C@H](Cc1c[nH]c2ccccc12)NC(=O)[C@H](CCC(N)=O)NC(=O)[C@@H](NC(=O)[C@H](Cc1ccccc1)NC(=O)[C@H](C)NC(=O)[C@H](CCCCNC(=O)COCCOCCNC(=O)COCCOCCNC(=O)CC[C@H](NC(=O)CCCCCCCCCCCCCCCCCCC(=O)O)C(=O)O)NC(=O)[C@H](CCC(N)=O)NC(=O)[C@H](C)NC(=O)[C@@H](NC(=O)[C@H](CCCCN)NC(=O)[C@H](CC(=O)O)NC(=O)[C@H](CC(C)C)NC(=O)C(C)(C)NC(=O)[C@@H](NC(=O)[C@H](CO)NC(=O)[C@H](Cc1ccc(O)cc1)NC(=O)[C@H](CC(=O)O)NC(=O)[C@H](CO)NC(=O)[C@@H](NC(=O)[C@H](Cc1ccccc1)NC(=O)[C@@H](NC(=O)CNC(=O)[C@H](CCC(=O)O)NC(=O)CCNC(=O)C(CC)(CC)c1cc(F)cc(C#N)c1)[C@@H](C)O)[C@@H](C)O)[C@@H](C)CC)[C@@H](C)CC)C(C)C)C(=O)N[C@@H](C)C(=O)NCC(=O)NCC(=O)N1CCC[C@H]1C(=O)N[C@@H](CO)C(=O)N[C@@H](CO)C(=O)NCC(=O)N[C@@H](C)C(=O)N1CCC[C@H]1C(=O)N1CCC[C@H]1C(=O)N1CCC[C@H]1C(=O)N[C@@H](CO)C(N)=O [Compound 162] ({X81-βAla}-EGTFTSDYSI[Aib]LDKIAQK([AEEA-AEEA-γGlu-C20 diacid])AFVQWLIAGGPSSGAPPPS-NH2)	1 to 10 nM	127%	> 1000 nM	1 to 10 nM	113%	< 1000 nM
CC[C@H](C)[C@H](NC(=O)[C@H](CC(C)C)NC(=O)[C@H](Cc1c[nH]c2ccccc12)NC(=O)[C@H](CCC(N)=O)NC(=O)[C@@H](NC(=O)[C@H](Cc1ccccc1)NC(=O)[C@H](C)NC(=O)[C@H](CCCCNC(=O)COCCOCCNC(=O)COCCOCCNC(=O)CC[C@H](NC(=O)CCCCCCCCCCCCCCCCCCC(=O)O)C(=O)O)NC(=O)[C@H](CCC(N)=O)NC(=O)[C@H](C)NC(=O)[C@@H](NC(=O)[C@H](CCCCN)NC(=O)[C@H](CC(=O)O)NC(=O)[C@H](CC(C)C)NC(=O)C(C)(C)NC(=O)[C@@H](NC(=O)[C@H](CO)NC(=O)[C@H](Cc1ccc(O)cc1)NC(=O)[C@H](CC(=O)O)NC(=O)[C@H](CO)NC(=O)[C@@H](NC(=O)[C@H](Cc1ccccc1)NC(=O)[C@@H](NC(=O)CNC(=O)[C@H](CCC(=O)O)NC(=O)CCNC(=O)C(C)(C)c1c(F)cccc1F)[C@@H](C)O)[C@@H](C)O)[C@@H](C)CC)[C@@H](C)CC)C(C)C)C(=O)N[C@@H](C)C(=O)NCC(=O)NCC(=O)N1CCC[C@H]1C(=O)N[C@@H](CO)C(=O)N[C@@H](CO)C(=O)NCC(=O)N[C@@H](C)C(=O)N1CCC[C@H]1C(=O)N1CCC[C@H]1C(=O)N1CCC[C@H]1C(=O)N[C@@H](CO)C(N)=O [Compound 163] ({X69-βAla}-EGTFTSDYSI[Aib]LDKIAQK([AEEA-AEEA-γGlu-C20 diacid])AFVQWLIAGGPSSGAPPPS-NH2)	0.1 to 1 nM	104%	> 1000 nM	10 to 100 nM	105%	< 1000 nM
CC[C@H](C)[C@H](NC(=O)[C@H](CC(C)C)NC(=O)[C@H](Cc1c[nH]c2ccccc12)NC(=O)[C@H](CCC(N)=O)NC(=O)[C@@H](NC(=O)[C@H](Cc1ccccc1)NC(=O)[C@H](C)NC(=O)[C@H](CCCCNC(=O)COCCOCCNC(=O)COCCOCCNC(=O)CC[C@H](NC(=O)CCCCCCCCCCCCCCCCCCC(=O)O)C(=O)O)NC(=O)[C@H](CCC(N)=O)NC(=O)[C@H](C)NC(=O)[C@@H](NC(=O)[C@H](CCCCN)NC(=O)[C@H](CC(=O)O)NC(=O)[C@H](CC(C)C)NC(=O)C(C)(C)NC(=O)[C@@H](NC(=O)[C@H](CO)NC(=O)[C@H](Cc1ccc(O)cc1)NC(=O)[C@H](CC(=O)O)NC(=O)[C@H](CO)NC(=O)[C@@H](NC(=O)[C@H](Cc1ccccc1)NC(=O)[C@@H](NC(=O)CNC(=O)[C@H](CCC(=O)O)NC(=O)CCNC(=O)C1(c2cc(F)cc(C#N)c2)CCCC1)[C@@H](C)O)[C@@H](C)O)[C@@H](C)CC)[C@@H](C)CC)C(C)C)C(=O)N[C@@H](C)C(=O)NCC(=O)NCC(=O)N1CCC[C@H]1C(=O)N[C@@H](CO)C(=O)N[C@@H](CO)C(=O)NCC(=O)N[C@@H](C)C(=O)N1CCC[C@H]1C(=O)N1CCC[C@H]1C(=O)N1CCC[C@H]1C(=O)N[C@@H](CO)C(N)=O [Compound 164] ({X35-βAla}-EGTFTSDYSI[Aib]LDKIAQK([AEEA-AEEA-γGlu-C20 diacid])AFVQWLIAGGPSSGAPPPS-NH2)	1 to 10 nM	112%	> 1000 nM	1 to 10 nM	106%	> 1000 nM
CC[C@H](C)[C@H](NC(=O)[C@H](CC(C)C)NC(=O)[C@H](Cc1c[nH]c2ccccc12)NC(=O)[C@H](CCC(N)=O)NC(=O)[C@@H](NC(=O)[C@H](Cc1ccccc1)NC(=O)[C@H](C)NC(=O)[C@H](CCCCNC(=O)COCCOCCNC(=O)COCCOCCNC(=O)CC[C@H](NC(=O)CCCCCCCCCCCCCCCCCCC(=O)O)C(=O)O)NC(=O)[C@H](CCC(N)=O)NC(=O)[C@H](C)NC(=O)[C@@H](NC(=O)[C@H](CCCCN)NC(=O)[C@H](CC(=O)O)NC(=O)[C@H](CC(C)C)NC(=O)C(C)(C)NC(=O)[C@@H](NC(=O)[C@H](CO)NC(=O)[C@H](Cc1ccc(O)cc1)NC(=O)[C@H](CC(=O)O)NC(=O)[C@H](CO)NC(=O)[C@@H](NC(=O)[C@H](Cc1ccccc1)NC(=O)[C@@H](NC(=O)CNC(=O)[C@H](CCC(=O)O)NC(=O)C(CNC(=O)C(C)(C)c1cc(F)cc(C#N)c1)C(F)(F)F)[C@@H](C)O)[C@@H](C)O)[C@@H](C)CC)[C@@H](C)CC)C(C)C)C(=O)N[C@@H](C)C(=O)NCC(=O)NCC(=O)N1CCC[C@H]1C(=O)N[C@@H](CO)C(=O)N[C@@H](CO)C(=O)NCC(=O)N[C@@H](C)C(=O)N1CCC[C@H]1C(=O)N1CCC[C@H]1C(=O)N1CCC[C@H]1C(=O)N[C@@H](CO)C(N)=O (stereo partly drawn) [Compound 165] ({Isobutyryl(2-(3-CN-5-F-Ph))}-[X21]EGTFTSDYSI[Aib]LDKIAQK([AEEA-AEEA-γGlu-C20 diacid])AFVQWLIAGGPSSGAPPPS-NH2)	10 to 100 nM	111%	> 1000 nM	100 to 1000 nM	92%	> 1000 nM
CC[C@H](C)[C@H](NC(=O)[C@H](CC(C)C)NC(=O)[C@H](Cc1c[nH]c2ccccc12)NC(=O)[C@H](CCC(N)=O)NC(=O)[C@@H](NC(=O)[C@H](Cc1ccccc1)NC(=O)[C@H](C)NC(=O)[C@H](CCCCNC(=O)COCCOCCNC(=O)COCCOCCNC(=O)CC[C@H](NC(=O)CCCCCCCCCCCCCCCCCCC(=O)O)C(=O)O)NC(=O)[C@H](CCC(N)=O)NC(=O)[C@H](C)NC(=O)[C@@H](NC(=O)[C@H](CCCCN)NC(=O)[C@H](CC(=O)O)NC(=O)[C@H](CC(C)C)NC(=O)C(C)(C)NC(=O)[C@@H](NC(=O)[C@H](CO)NC(=O)[C@H](Cc1ccc(O)cc1)NC(=O)[C@H](CC(=O)O)NC(=O)[C@H](CO)NC(=O)[C@@H](NC(=O)[C@H](Cc1ccccc1)NC(=O)[C@@H](NC(=O)CNC(=O)[C@H](CCC(=O)O)NC(=O)CCNC(=O)C(C)(C)c1cc(F)cc(C#N)c1)[C@@H](C)O)C(C)C)[C@@H](C)CC)[C@@H](C)CC)C(C)C)C(=O)N[C@@H](C)C(=O)NCC(=O)NCC(=O)N1CCC[C@H]1C(=O)N[C@@H](CO)C(=O)N[C@@H](CO)C(=O)NCC(=O)N[C@@H](C)C(=O)N1CCC[C@H]1C(=O)N1CCC[C@H]1C(=O)N1CCC[C@H]1C(=O)N[C@@H](CO)C(N)=O [Compound 166] ({Isobutyryl(2-(3-CN-5-F-Ph))-βAla}-EGTFVSDYSI[Aib]LDKIAQK([AEEA-AEEA-γGlu-C20 diacid])AFVQWLIAGGPSSGAPPPS-NH2)	10 to 100 nM	77%	> 1000 nM	1 to 10 nM	108%	< 1000 nM

From patent US12281149B2, “Modulators of G-protein coupled receptors” (priority 2021, dated 2025)
